Tests used:
ACHN [1] = assay: Cytotoxicity against TRAIL-resistant human ACHN cells assessed as cell killing after 20 to 24 hrs in presence of TRAIL; type: functional, cell-based
ACHN [2] = assay: Cytotoxicity against TRAIL-resistant human ACHN cells assessed as cell killing after 20 to 24 hrs; type: functional, cell-based
ACHN [3] = assay: Ratio of EC50 for TRAIL-resistant human ACHN cells to EC50 for TRAIL-resistant human ACHN cells in presence of TRAIL; type: functional

Row | SMILES | EC50 (ACHN [1]) [µM] | EC50 (ACHN [2]) [µM] | Ratio EC50 (ACHN [3])
1 | C=C/C(C)=C/C[C@]1(C)[C@H](C)[C@@H](O)[C@@H](O)[C@@]23C(=C[C@H](OC(=O)/C=C\C=C\CCCCC)C[C@@H]12)[C@@H](OC(C)=O)O[C@H]3OC(C)=O [ARGUTIN C] | 1.6 | 3.1 | 1.9
2 | C=C/C(C)=C/C[C@]1(C)[C@H](C)C[C@@H](OC(=O)/C=C/C=C/CCCCC)[C@@]23C(=C[C@H](O)C[C@@H]12)[C@@H](OC(C)=O)O[C@H]3OC(C)=O [ARGUTIN B] | 4.6 | 13.8 | 3
3 | C=C/C(C)=C/C[C@]1(C)[C@H](C)[C@@H](O)C[C@@]23C(=C[C@H](OC(=O)/C=C\C=C\CCCCC)C[C@@H]12)[C@@H](OC(C)=O)O[C@H]3OC(C)=O [ARGUTIN E] | 2.2 | 3.3 | 1.5
4 | C=C/C(C)=C/C[C@]1(C)[C@H](C)C[C@@H](O)[C@@]23C(=C[C@H](OC(=O)/C=C\C=C\CCCCC)C[C@@H]12)[C@@H](OC(C)=O)O[C@H]3OC(C)=O [ARGUTIN A] | 2.4 | 5.4 | 2.3
5 | C=C/C(C)=C/C[C@]1(C)[C@H](C)[C@@H](O)[C@@H](OC(=O)/C=C/C=C/CCCCC)[C@@]23C(=C[C@H](O)C[C@@H]12)[C@@H](OC(C)=O)O[C@H]3OC(C)=O [ARGUTIN D] | 8.7 | 14.3 | 1.6
6 | C=CC(=C)[C@@H](C[C@]1(C)[C@H](C)C[C@@H](O)[C@@]23C(=C[C@H](OC(=O)/C=C\C=C\CCCCC)C[C@@H]12)[C@@H](OC(C)=O)O[C@H]3OC(C)=O)OO [ARGUTIN F] | 7.1 | 10.4 | 1.5
7 | C=CC(=C)[C@@H](C[C@]1(C)[C@H](C)[C@@H](O)[C@@H](O)[C@@]23C(=C[C@H](OC(=O)/C=C\C=C\CCCCC)C[C@@H]12)[C@@H](OC(C)=O)O[C@H]3OC(C)=O)OO [ARGUTIN G] | 2.8 | 4.2 | 1.5
